Laboratory results: patent US10196390B2, “TYK2 inhibitors and uses thereof” (Nimbus Lakshmi, Inc., priority 2014, dated 2019)

Key:
JAK2 = JAK2 (Homo sapiens (Human), UniProt O60674); test: JAK2 activity inhibition assay (radioactive kinase assay / Caliper assay); type: biochemical; details: read-out: JAK2 Ki
Protocol: The caliper machine employs an off chip mobility shift assay to detect phosphorylated peptide substrates from kinase assays, using microfluidics technology. […] Compounds are serially diluted in DMSO then further diluted in assay buffer (25 mM HEPES, pH 7.5, 0.01% Brij-35, 0.01% Triton, 0.5 mM EGTA). 5 ul of diluted compound was added into wells first, then 10 ul of enzyme mix was added into wells, followed by 10 uL of substrate mix (peptide and ATP in 10 mM MgCl2) to start reaction. Reaction was incubated at 28° C. for 25 min and then added 25 ul stop buffer (100 mM HEPES, 0.015% Brij-35, 50 mM EDTA), followed by reading with Caliper.

TYK2 = TYK2 (Homo sapiens (Human), UniProt P29597); test: Tyk2 activity inhibition assay (radioactive kinase assay / Caliper assay); type: biochemical
TYK2, sequence (P29597 whole entry): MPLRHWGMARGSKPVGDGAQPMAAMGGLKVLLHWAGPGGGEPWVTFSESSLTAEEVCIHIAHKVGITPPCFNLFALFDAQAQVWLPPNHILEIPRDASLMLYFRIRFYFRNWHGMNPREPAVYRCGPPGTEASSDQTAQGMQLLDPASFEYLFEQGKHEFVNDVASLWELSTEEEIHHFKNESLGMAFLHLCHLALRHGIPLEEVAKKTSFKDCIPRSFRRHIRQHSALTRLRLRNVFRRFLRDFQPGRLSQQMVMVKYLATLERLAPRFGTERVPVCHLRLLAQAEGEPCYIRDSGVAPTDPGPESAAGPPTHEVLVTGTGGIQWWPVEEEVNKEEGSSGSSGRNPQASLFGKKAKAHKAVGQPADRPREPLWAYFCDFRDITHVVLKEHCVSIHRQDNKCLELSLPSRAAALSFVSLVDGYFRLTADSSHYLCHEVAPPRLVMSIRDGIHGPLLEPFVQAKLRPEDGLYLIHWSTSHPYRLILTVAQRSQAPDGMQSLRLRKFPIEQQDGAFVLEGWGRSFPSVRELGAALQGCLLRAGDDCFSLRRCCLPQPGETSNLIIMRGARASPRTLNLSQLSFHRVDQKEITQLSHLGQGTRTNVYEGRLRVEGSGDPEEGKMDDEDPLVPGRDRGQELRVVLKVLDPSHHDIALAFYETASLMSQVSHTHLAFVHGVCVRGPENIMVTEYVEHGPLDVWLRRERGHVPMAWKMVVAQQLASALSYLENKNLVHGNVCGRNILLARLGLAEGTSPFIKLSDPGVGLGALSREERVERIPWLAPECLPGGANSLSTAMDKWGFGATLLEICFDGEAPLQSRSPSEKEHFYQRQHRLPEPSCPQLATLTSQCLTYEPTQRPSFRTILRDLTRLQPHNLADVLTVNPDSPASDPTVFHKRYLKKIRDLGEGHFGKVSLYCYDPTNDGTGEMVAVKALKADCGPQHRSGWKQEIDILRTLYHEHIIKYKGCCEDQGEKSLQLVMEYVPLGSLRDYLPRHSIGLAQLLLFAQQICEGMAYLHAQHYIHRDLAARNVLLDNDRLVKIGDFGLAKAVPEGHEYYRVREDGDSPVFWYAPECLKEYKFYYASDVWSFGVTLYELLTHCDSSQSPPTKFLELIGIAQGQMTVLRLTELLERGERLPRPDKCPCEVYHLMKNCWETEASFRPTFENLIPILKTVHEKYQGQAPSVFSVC
Protocol: Peptide substrate, [[…]], (20 μM) is prepared in reaction buffer (20 mM Hepes pH 7.5, 10 mM MgCl2, 1 mM EGTA, 0.02% Brij35, 0.02 mg/mL BSA, […], 2 mM DTT, 1% DMSO. TYK2 (Invitrogen) kinase is added, followed by compounds in DMSO. 33PATP is added to initiate the reaction in ATP at 10 μM. Kinase reaction is incubated for 120 min at room temp and reactions are spotted onto P81 ion exchange paper (Whatman #3698-915), and then washed extensively in 0.75% phosphoric acid, prior to reading the radioactivity counts. For JAK2 (Invitrogen) kinase assay the peptide substrate poly[Glu:Tyr](4:1), 0.2 mg/ml is used, in the reaction carried out the same as for TYK2.
The caliper machine employs an off chip mobility shift assay to detect phosphorylated peptide substrates from kinase assays, using microfluidics technology. The assays are carried out at ATP concentration equivalent to the ATP Km, and at 1 mM ATP. Compounds are serially diluted in DMSO then further diluted in assay buffer (25 mM HEPES, pH 7.5, 0.01% Brij-35, 0.01% Triton, 0.5 mM EGTA). 5 ul of diluted compound was added into wells first, then 10 ul of enzyme mix was added into wells, followed by 10 uL of substrate mix (peptide and ATP in 10 mM MgCl2) to start reaction. Reaction was incubated at 28° C. for 25 min and then added 25 ul stop buffer (100 mM HEPES, 0.015% Brij-35, 50 mM EDTA), followed by reading with Caliper. JAK2 at 1 nM final concentration and TYK2 at 9.75 nM are from Carna, and substrates used are ATP at 20 and 16 uM, respectively. JAK2 assay uses peptide 22 and TYK2 uses peptide 30 (Caliper), each at 3 uM.

JAK2, sequence (O60674 whole entry): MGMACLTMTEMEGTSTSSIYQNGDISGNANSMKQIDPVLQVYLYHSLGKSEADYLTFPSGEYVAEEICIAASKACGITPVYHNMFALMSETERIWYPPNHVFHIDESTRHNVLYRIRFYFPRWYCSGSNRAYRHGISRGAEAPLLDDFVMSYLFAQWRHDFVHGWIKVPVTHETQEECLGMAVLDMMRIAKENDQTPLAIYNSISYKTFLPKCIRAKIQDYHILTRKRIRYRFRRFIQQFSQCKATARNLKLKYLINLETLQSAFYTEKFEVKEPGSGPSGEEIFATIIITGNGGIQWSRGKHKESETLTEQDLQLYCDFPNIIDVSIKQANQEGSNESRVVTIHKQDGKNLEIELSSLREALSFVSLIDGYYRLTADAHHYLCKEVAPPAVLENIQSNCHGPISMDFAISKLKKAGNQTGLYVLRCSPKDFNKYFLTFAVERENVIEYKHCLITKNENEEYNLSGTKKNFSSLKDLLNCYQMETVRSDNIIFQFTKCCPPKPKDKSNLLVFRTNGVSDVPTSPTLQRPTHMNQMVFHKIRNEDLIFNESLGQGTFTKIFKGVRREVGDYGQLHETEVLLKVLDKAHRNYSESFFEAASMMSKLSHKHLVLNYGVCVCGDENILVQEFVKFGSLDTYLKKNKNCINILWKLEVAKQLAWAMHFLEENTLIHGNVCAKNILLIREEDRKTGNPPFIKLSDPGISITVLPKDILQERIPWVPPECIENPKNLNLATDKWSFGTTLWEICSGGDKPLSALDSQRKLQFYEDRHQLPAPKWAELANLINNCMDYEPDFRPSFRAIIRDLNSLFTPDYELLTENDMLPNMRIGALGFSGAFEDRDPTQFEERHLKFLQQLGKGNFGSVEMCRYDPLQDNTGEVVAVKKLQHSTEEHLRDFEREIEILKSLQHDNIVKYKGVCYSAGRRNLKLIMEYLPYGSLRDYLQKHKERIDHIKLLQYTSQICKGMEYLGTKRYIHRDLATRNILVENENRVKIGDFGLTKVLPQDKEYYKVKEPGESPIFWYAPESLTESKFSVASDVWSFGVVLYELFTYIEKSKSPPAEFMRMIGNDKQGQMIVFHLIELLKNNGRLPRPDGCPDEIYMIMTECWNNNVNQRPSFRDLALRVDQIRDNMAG

Compound	Ki (JAK2) [nM]	Ki (TYK2) [nM]
O=C(Cc1ccc(Nc2nc(-c3c(F)cccc3F)nc3c2C(=O)NC3)cc1)NC1CNC1 [Compound I-12, N-(azetidin-3-yl)-2-(4-((2-(2,6-difluorophenyl)-5-oxo-6,7-dihydro-5H-pyrrolo[3,4-d]pyrimidin-4-yl)amino)phenyl)acetamide]	100 to 1000	–
COCCNC(=O)c1ccc(Nc2cc(-c3c(F)cccc3F)nc3c2C(=O)NC3)nc1 [Compound I-141, 6-((2-(2,6-difluorophenyl)-5-oxo-6,7-dihydro-5H-pyrrolo[3,4-b]pyridin-4-yl)amino)-N-(2-methoxyethyl)nicotinamide]	10 to 100	–
CCC1(c2ccc(Nc3nc(-c4c(F)cccc4F)nc4c3C(=O)NC4)cc2)CCNC1=O (stereo not drawn) [Compound I-175, 2-(2,6-difluorophenyl)-4-((4-(3-ethyl-2-oxopyrrolidin-3-yl)phenyl)amino)-6,7-dihydro-5H-pyrrolo[3,4-d]pyrimidin-5-one]	10 to 100	–
COC(=O)C(C)c1ccc(Nc2nc(-c3c(F)cccc3F)nc3c2C(=O)NC3)cc1 (stereo not drawn) [Compound I-188, methyl 2-(4-((2-(2,6-difluorophenyl)-5-oxo-6,7-dihydro-5H-pyrrolo[3,4-d]pyrimidin-4-yl)amino)phenyl)propanoate]	10 to 100	–
C[C@@H](C(=O)O)c1ccc(Nc2nc(-c3c(F)cccc3F)nc3c2C(=O)NC3)cc1 [Compound I-190, (R)-2-(4-((2-(2,6-difluorophenyl)-5-oxo-6,7-dihydro-5H-pyrrolo-[3,4-d]pyrimidin-4-yl)amino)phenyl)propanoic Acid]	100 to 1000	–
CN1CCN(C)C(C)(c2ccc(Nc3nc(-c4c(F)cccc4F)nc4c3C(=O)NC4)cc2)C1=O (stereo not drawn) [Compound I-209, 2-(2,6-difluorophenyl)-4-((4-(1,2,4-trimethyl-3-oxopiperazin-2-yl)phenyl)amino)-6,7-dihydro-5H-pyrrolo[3,4-d]pyrimidin-5-one]	10 to 100	–
CN1CCN(C)[C@](C)(c2ccc(Nc3nc(-c4c(F)cccc4F)nc4c3C(=O)NC4)cc2)C1=O [Compound I-210, (R)-2-(2,6-difluorophenyl)-4-((4-(1,2,4-trimethyl-3-oxopiperazin-2-yl)phenyl)amino)-6,7-dihydro-5H-pyrrolo[3,4-d]pyrimidin-5-one]	10 to 100	–
COc1ccc(Nc2cc(-c3c(F)cccc3F)nc3c2C(=O)NC3C)nc1 (stereo not drawn) [Compound I-239, 2-(2,6-difluorophenyl)-4-((5-methoxypyridin-2-yl)amino)-7-methyl-6,7-dihydro-5H-pyrrolo[3,4-b]pyridin-5-one]	100 to 1000	–
O=C1NCc2nc(-c3c(F)cccc3F)cc(Nc3ccc(C4=CCOCC4)cn3)c21 [Compound I-249, 2-(2,6-difluorophenyl)-4-((5-(3,6-dihydro-2H-pyran-4-yl)pyridin-2-yl)amino)-6,7-dihydro-5H-pyrrolo[3,4-b]pyridin-5-one]	10 to 100	–
CC1(C)CCN(c2ccc(Nc3cc(-c4c(F)cccc4F)nc4c3C(=O)NC4)nc2)CC1 [Compound I-252, 2-(2,6-difluorophenyl)-4-((5-(4,4-dimethylpiperidin-1-yl)pyridin-2-yl)amino)-6,7-dihydro-5H-pyrrolo[3,4-b]pyridin-5-one]	100 to 1000	–
O=C1NCc2nc(-c3c(F)cccc3F)c(F)c(Nc3ccc(N4CCOCC4)cn3)c21 [Compound I-254, 2-(2,6-difluorophenyl)-3-fluoro-4-((5-morpholinopyridin-2-yl)amino)-6,7-dihydro-5H-pyrrolo[3,4-b]pyridin-5-one]	10 to 100	–
CC1(c2ccc(Nc3nc(-c4c(F)cccc4F)nc4c3C(=O)NC4)cc2)COC1 [Compound I-255, 2-(2,6-difluorophenyl)-4-((4-(3-methyloxetan-3-yl)phenyl)-amino)-6,7-dihydro-5H-pyrrolo[3,4-d]pyrimidin-5-one]	10 to 100	–
CC1(C)CN(c2ccc(Nc3cc(-c4c(F)cccc4F)nc4c3C(=O)NC4)nc2)CC[C@@H]1O [Compound I-267, (S)-2-(2,6-difluorophenyl)-4-((5-(4-hydroxy-3,3-dimethylpiperidin-1-yl)pyridin-2-yl)amino)-6,7-dihydro-5H-pyrrolo[3,4-b]pyridin-5-one]	10 to 100	–
CC1(O)CCN(C(=O)c2ccc(Nc3cc(-c4c(F)cccc4F)nc4c3C(=O)NC4)cc2)CC1 [Compound I-275, 2-(2,6-difluorophenyl)-4-((4-(4-hydroxy-4-methylpiperidine-1-carbonyl)phenyl)amino)-6,7-dihydro-5H-pyrrolo[3,4-b]pyridin-5-one]	10 to 100	–

More lines, now with the values ahead:

Ki (JAK2) [nM]	Ki (TYK2) [nM]	Compound
10 to 100	–	CCNC(=O)c1ccc(Nc2cc(-c3c(F)cccc3Cl)nc3c2C(=O)NC3)nc1 [Compound I-146, 6-((2-(2-chloro-6-fluorophenyl)-5-oxo-6,7-dihydro-5H-pyrrolo[3,4-b]pyridin-4-yl)amino)-N-ethylnicotinamide]
–	100 to 1000	COC(=O)Cc1ncc(Nc2nc(-c3c(F)cccc3F)nc3c2C(=O)NC3)cn1 [Compound I-166, methyl 2-(5-((2-(2,6-difluorophenyl)-5-oxo-6,7-dihydro-5H-pyrrolo[3,4-d]pyrimidin-4-yl)amino)pyrimidin-2-yl)acetate]
10 to 100	–	CC[C@]1(c2ccc(Nc3nc(-c4c(F)cccc4F)nc4c3C(=O)NC4)cc2)CCNC1=O [Compound I-177, (R)-2-(2,6-difluorophenyl)-4-((4-(3-ethyl-2-oxopyrrolidin-3-yl)phenyl)amino)-6,7-dihydro-5H-pyrrolo[3,4-d]pyrimidin-5-one]
100 to 1000	–	C[C@H](C(=O)O)c1ccc(Nc2nc(-c3c(F)cccc3F)nc3c2C(=O)NC3)cc1 [Compound I-191, (S)-2-(4-((2-(2,6-difluorophenyl)-5-oxo-6,7-dihydro-5H-pyrrolo-[3,4-d]pyrimidin-4-yl)amino)phenyl)propanoic Acid]
10 to 100	–	O=C1NCc2nc(-c3c(F)cccc3F)cc(Nc3ccc(C(=O)N4CCOCC4)cn3)c21 [Compound I-212, 2-(2,6-difluorophenyl)-4-((5-(morpholine-4-carbonyl)pyridin-2-yl)amino)-6,7-dihydro-5H-pyrrolo[3,4-b]pyridin-5-one]
100 to 1000	–	O=C1NCc2nc(-c3c(F)cccc3F)cc(Nc3ccc(F)cc3)c21 [Compound I-235, 2-(2,6-difluorophenyl)-4-((4-fluorophenyl)amino)-6,7-dihydro-5H-pyrrolo[3,4-b]pyridin-5-one]
10 to 100	–	CC1COCCN1c1ccc(Nc2cc(-c3c(F)cccc3F)nc3c2C(=O)NC3)nc1 (stereo not drawn) [Compound I-244, 2-(2,6-difluorophenyl)-4-((5-(3-methylmorpholino)pyridin-2-yl)amino)-6,7-dihydro-5H-pyrrolo[3,4-b]pyridin-5-one]
10 to 100	–	O=C1NCc2nc(-c3c(F)cccc3F)cc(Nc3ccc(C4(O)CCOCC4)cn3)c21 [Compound I-251, 2-(2,6-difluorophenyl)-4-((5-(4-hydroxytetrahydro-2H-pyran-4-yl)pyridin-2-yl)amino)-6,7-dihydro-5H-pyrrolo[3,4-b]pyridin-5-one]
10 to 100	–	C[C@@H]1CCC[C@H](C)N1c1ccc(Nc2cc(-c3c(F)cccc3F)nc3c2C(=O)NC3)nc1 [Compound I-261, 2-(2,6-difluorophenyl)-4-((5-((2R,6S)-2,6-dimethylpiperidin-1-yl)pyridin-2-yl)amino)-6,7-dihydro-5H-pyrrolo[3,4-b]pyridin-5-one]
10 to 100	–	O=C1NCc2nc(-c3c(F)cccc3F)cc(Nc3ccc(N4CCCC(O)C4)cn3)c21 (stereo not drawn) [Compound I-269, 2-(2,6-difluorophenyl)-4-((5-(3-hydroxypiperidin-1-yl)pyridin-2-yl)amino)-6,7-dihydro-5H-pyrrolo[3,4-b]pyridin-5-one]
10 to 100	–	O=C1NCc2nc(-c3c(F)cccc3F)cc(Nc3ccc(N4C5COCC4C5)cn3)c21 [Compound I-279, 4-((5-(3-oxa-6-azabicyclo[3.1.1]heptan-6-yl)pyridin-2-yl)amino)-2-(2,6-difluorophenyl)-6,7-dihydro-5H-pyrrolo[3,4-b]pyridin-5-one]
10 to 100	–	CC1(C)CCCC(=O)N1c1ccc(Nc2cc(-c3c(F)cccc3F)nc3c2C(=O)NC3)nc1 [Compound I-284, 2-(2,6-difluorophenyl)-4-((5-(2,2-dimethyl-6-oxopiperidin-1-yl)pyridin-2-yl)amino)-6,7-dihydro-5H-pyrrolo[3,4-b]pyridin-5-one]
100 to 1000	–	CCNC(=O)c1cnc(Nc2cc(-c3c(F)cccc3F)nc3c2C(=O)NC3)cc1F [Compound I-286, 6-((2-(2,6-difluorophenyl)-5-oxo-6,7-dihydro-5H-pyrrolo[3,4-b]pyridin-4-yl)amino)-N-ethyl-4-fluoronicotinamide]
